In patent publication US20160235807A1, “AGONISTS OF GUANYLATE CYCLASE USEFUL FOR DOWNREGULATION OF PRO-INFLAMMATORY CYTOKINES” (SYNERGY PHARMACEUTICALS, INC., priority 2013, published 2016):
Bridge positions count the residues as written; N and C are the ends. Square brackets hold non-standard residues; d marks the D form. Ends that are not written are not given here.

Experiments:
Src = experiment: Activation of Src and GCRA-mediated cGMP production by T84 cells (FIG. 13); assay type: cell-based, human; conditions: activation of Src
[1] = system: myeloperoxidase (MPO) activity in colon tissues; experiment: MPO activity in lysates from mid-colon tissues, DSS-induced colitis in BDF-1 mice; assay type: in vivo, mouse; conditions: 5-ASA 100 mg/kg
Description: (§1) A total of 40 samples were chosen for analysis of MPO activity and Ki-67 labeling from the treatment groups that received SP-333, its vehicle control (0.1M phosphate buffer, pH 7) and the reference compound (5-ASA). A random number generator (www.random.org) was employed to select samples from these groups (7 from each of the SP-333-recipient groups and 6 from each of the vehicle and 5-ASA groups).
Myeloperoxidase activity in colonic tissue samples was performed according to the method described (Krawisc et al., 1984). Briefly, the rate of change in absorbance at 450 nm was recorded when 20 μl of tissue extract was incubated with […] of reaction buffer containing 0.26 mg/ml 0-dianisidine and 0.6 μl/ml H2O2. Each reaction was performed in triplicate. The rate of reaction was determined (initial slope) and normalized to protein concentration of sample.

DSS-induced colitis = DSS-induced colitis in BDF-1 mice; assay type: in vivo, mouse
Description: To evaluate the efficacy of plecanatide in DSS induced colitis model, 48 BDF-1 mice were divided into 8 treatment groups (6 mice/group). One group was not exposed to DSS (untreated control) and groups 2-8 were treated with 5% DSS in the drinking water on day 0. Plecanatide or SP-333 solutions formulated in 0.1M phosphate buffer (pH 7) was administered by oral gavage, once a day at 0.005, 0.05, 0.5, 2.5 and 5 mg/kg, from study day −1 (i.e. prior to initiation of DSS treatment) through day 6 for SP-333 or day 7 for plecanatide. DSS treatment was initiated on day 0 for groups 2-8 until the end of the study. Sulfasalazine (80 mg/kg) or 5-ASA (100 mg/kg) was used as positive control and was administered daily. Mice were sacrificed on day 7. The large intestine was removed and weighed. Distal section of the large intestine was collected and fixed as described above.
Disease activity index (DAI) was calculated by scoring in-life parameters starting from day −1 until the end of the study. Once daily, all mice were weighed and assessed for stool consistency, and the presence of overt blood in the stool or around the anus essentially similar to that reported earlier. Colitis severity was assessed by histopathological analyses of H&E stained tissue sections (Hegazi et al., 2005; Dave et al., 2009) employing the following criteria: (score 0) normal appearing crypts; (score 1) abnormal crypt pathology without ulceration; (score 2) depleted crypts with ulceration; (score 3) 20-50% depleted crypts and increased ulceration; (score 4) >50% depleted crypts with substantial ulceration and (score 5) totally ulcerated/inflamed colon with no crypts remaining. All slides were scored in a blinded manner. Colitis severity in TCRα−/− model was scored as previously described^25. All slides were scored in a blinded manner. Disease activity index (DAI) was calculated by assessing body weight, stool consistency, and the presence of overt blood in stools or around the anus, essentially similar to that reported earlier (Hamamoto et al., 1999).

[2] = system: Ki-67 labeling of crypt epithelial cells; experiment: Ki-67 labeling in large bowel cross sections, DSS-induced colitis in BDF-1 mice; assay type: in vivo, mouse; conditions: 5-ASA treated mice
Source text: as §1
Employing standard procedures, two non-serial sections from each animal, were de-waxed in xylene and rehydrated in graded alcohols to PBS (pH 7.4). Endogenous peroxidase was blocked by incubation in 0.3% […] for 30 min. Antigen retrieval was performed by placing the slides in 1 L of citrate buffer (pH 6) and microwaving at high power for 20 minutes. After cooling for 15 minutes, sections were incubated with 10% normal goat serum for 30 minutes to block non-specific binding Primary antibody (mouse monoclonal IgG, clone MIB-1, Dako) at 1/50 dilution was added and incubated for 1 hour at room temperature. Sections were washed and incubated with biotinylated secondary IgG antibody (1/200 dilution; Vector Labs Inc.), for 45 minutes at room temperature. Subsequently, slides were washed and incubated with ABC Elite reagents (Vector Labs Inc.), for 30 minutes at room temperature. […] Sections were counterstained with thionine, dehydrated and mounted.

[3] = assay type: in vitro ADME
Description: The potency of test peptides to stimulate cGMP synthesis in T84 cells was assayed by a published procedure (Shailubhai et al. 2000). Briefly, confluent monolayers of T-84 cells in 24-well plates were washed twice with 250 μl of DMEM containing 50 mM HEPES (pH 7.4), pre-incubated at 37° C. for 10 min with 250 μl of DMEM containing 50 mM HEPES (pH 7.4) and 1 mM isobutylmethylxanthine (IBMX), followed by incubation with test peptide for 30 min. The medium was aspirated, and the reaction was terminated by the addition of 3% perchloric acid. Following centrifugation, and neutralization with 0.1 N NaOH, the resulting supernatant was used directly for measurements of intracellular cGMP using an ELISA kit (Caymen Chemical, Ann Arbor, Mich.). Results are expressed as pmol of cGMP/mg of protein in the cell extracts.
Plecanatide and SP-333 were incubated in simulated intestinal fluid (SIF) for 6-24 h. Inactivated SIF was used as a control. Following the treatment, samples were analyzed by HPLC by cGMP production in T84 cells. […] The active metabolite, SP-338 was characterized by MS and MS/MS and identified to be formed via removal of carboxyl terminal leucine possibly due to cleavage by carboxypeptidases.

NF-κB [4] = experiment: Inhibition of NF-κB signaling in LPS-stimulated T84 cells, Western blot; assay type: cell-based, human
Description: Approximately 1.5×10^6 T84 cells were seeded into 100 mm dishes and cultured essentially as described (Shailubhai et al. 2000). At 85-90% confluence, cells were washed and treated with 10 μg/ml lipopolysaccharides (LPS) from Escherichia coli (Sigma-Aldrich, St. Louis, Mo.) for 4 h. Subsequent to LPS treatment, cells were washed and replenished with fresh media containing 8-Bromo-cyclic GMP (8-Br-cGMP) at 0, 0.1, 1, 10, 100 and 1000 μM (Enzo Life Science, Farmingdale, N.Y.), or SP-333 at 0, 0.01, 0.1, 1 and 10 μM together with 500 μM of phosphodiesterase inhibitor Zaprinast (Sigma-Aldrich, St. Louis, Mo.) for 16 h before harvest. For analyzing phosphorylation status of IKK-α/β, T84 cells were stimulated with LPS (10 μg/ml) for 4 h followed by treatment with 0.1 and 1.0 μM of SP-333 in the presence of 500 μM Zaprinast, for 2 h. The control cells (without LPS treatment) were washed and refilled with fresh media and harvested simultaneously with treated cells. Nuclear and cytosolic extracts were prepared by the previously described method (Aiamkitsumrit et al. 2007). Protein concentration was measured with a Bio-Rad protein assay kit (Bio-Rad, Hercules, Calif.). The extracts were stored at −80° C. until use.
T84 cells at 85-90% confluence were washed and treated with 10 μg/ml Escherichia coli LPS (Sigma-Aldrich, St. Louis, Mo.) for 4 h.
Western Blot analysis: This was performed essentially as described^21 employing either 50 μg of cytoplasmic or 25 μg proteins of the nuclear fractions. The blots were probed overnight with primary antibodies of interest (anti-p65 antibody, 1:200 dilution; anti-IκB antibody 1:500 dilution; anti-phosphorylated p65 antibody, 1:250 dilution; anti-phosphorylated IκB antibody 1:250 dilution; all were from Santa Cruz Biotechnology (Santa Cruz, Calif.). Anti-IKK-β and phosphorylated IKK-α/β (Ser 176/180) were purchased from Cell Signaling Technology, Boston, Mass. and used at 1:500 dilution; anti-mouse or anti-rabbit antibodies conjugated to […] were used for chemiluminescence detection as recommended by manufacturer (GE Healthcare, Piscataway, N.J.).

NF-κB [5] = experiment: as above; assay type: cell-based, human; conditions: zaprinast 500 μM alone
[6] = molecular target: guanylate cyclase C (GC-C) receptor (human, UniProt P25092 24-1073); experiment: cell-based or functional assay
[7] = 5-ASA 100 mg/kg, vs DSS alone or DSS plus vehicle

guanylate cyclase C (GC-C) receptor, sequence (P25092 24-1073): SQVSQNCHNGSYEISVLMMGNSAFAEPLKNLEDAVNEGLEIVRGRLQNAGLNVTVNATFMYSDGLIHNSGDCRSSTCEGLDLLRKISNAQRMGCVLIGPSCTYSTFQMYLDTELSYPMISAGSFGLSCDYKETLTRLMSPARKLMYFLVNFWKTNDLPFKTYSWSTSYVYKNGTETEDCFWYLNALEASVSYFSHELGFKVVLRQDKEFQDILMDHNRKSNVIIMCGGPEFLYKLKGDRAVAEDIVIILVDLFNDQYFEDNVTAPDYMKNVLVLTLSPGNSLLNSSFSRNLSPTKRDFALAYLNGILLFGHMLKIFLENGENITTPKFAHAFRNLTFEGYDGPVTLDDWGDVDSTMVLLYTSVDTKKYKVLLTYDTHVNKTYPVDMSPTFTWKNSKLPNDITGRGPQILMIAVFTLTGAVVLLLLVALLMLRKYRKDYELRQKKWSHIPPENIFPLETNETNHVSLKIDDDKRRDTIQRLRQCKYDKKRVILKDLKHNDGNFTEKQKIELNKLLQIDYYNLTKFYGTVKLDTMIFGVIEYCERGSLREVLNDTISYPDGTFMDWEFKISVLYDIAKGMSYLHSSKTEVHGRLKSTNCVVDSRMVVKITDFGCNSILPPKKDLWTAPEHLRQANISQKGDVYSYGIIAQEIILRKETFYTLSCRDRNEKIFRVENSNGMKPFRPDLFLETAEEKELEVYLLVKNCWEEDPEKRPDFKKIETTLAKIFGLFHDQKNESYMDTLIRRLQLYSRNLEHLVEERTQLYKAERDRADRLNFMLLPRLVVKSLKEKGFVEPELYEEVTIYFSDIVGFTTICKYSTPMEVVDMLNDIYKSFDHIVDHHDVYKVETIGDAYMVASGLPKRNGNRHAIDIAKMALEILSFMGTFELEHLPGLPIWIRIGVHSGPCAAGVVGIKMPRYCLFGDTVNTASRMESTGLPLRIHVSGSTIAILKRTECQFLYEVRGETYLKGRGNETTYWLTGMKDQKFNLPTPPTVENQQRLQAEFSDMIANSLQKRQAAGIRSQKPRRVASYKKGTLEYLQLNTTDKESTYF

## [Cl][Hg][Cl] [HgCl2]
Src
  GCRA-mediated cGMP production by T84 cells: inhibited

## Nc1ccc(O)c(C(=O)O)c1 [5-ASA, 5-aminosalicylic acid, reference compound]
[1]
  MPO activity compared to DSS treated animals: considerably reduced
[1]; p=0.010
  initial MPO activity: 0.029±0.004 units/minute
DSS-induced colitis; 5-ASA 100 mg/kg
  histological evaluation of colon tissues (crypts): only patchy loss of crypts
DSS-induced colitis; [7]
  mean DAI scores: lower
  mean scores of colitis severity: lower
DSS-induced colitis; DSS+5-ASA 100 mg/kg, representative image FIG. 10F
  histopathology score: 2
[2]
  proportion of Ki-67 positive crypts: 53.5±12.33%

## Asn^1-Asp^2-Glu^3-Cys^4-Glu^5-Leu^6-Cys^7-Val^8-Asn^9-Val^10-Ala^11-Cys^12-Thr^13-Gly^14-Cys^15 (NDECELCVNVACTGC) [SP-338]
[3]
  biological activity of the major metabolite of plecanatide in SIF: appears to retain biological activity

## Nc1nc2c(nc(Br)n2[C@@H]2O[C@@H]3COP(=O)(O)O[C@H]3[C@H]2O)c(=O)[nH]1 [8-Br-cGMP, 8-Bromo-cyclic GMP, reference compound]
NF-κB [4]; LPS 10 μg/ml 4 h, then 8-Br-cGMP (1 mM) 16 h, zaprinast 500 μM
  levels of phospho-p65: reduced levels of phospho-p65 in a dose-dependent manner

## CCCOc1ccccc1-c1nc2nn[nH]c2c(=O)[nH]1 [zaprinast, reference compound]
NF-κB [4]; zaprinast 500 μM alone, T84 cells
  NF-κB activation: did not inhibit NF-κB activation
NF-κB [5]
  cGMP levels: did not increase cGMP levels

## [dN]DECELCVNVACTGC[dL] (disulfide 4-12, 7-15) [SP-333]
[6]
  cGMP accumulation in T84 cells (EC50): 283 nM
  cGMP synthesis in T84 cells (EC50): 283 nM

## NDECELCVNVACTGCL (disulfide 4-12, 7-15) [Plecanatide (SP-304)]
[6]
  cGMP accumulation in T84 cells (EC50): 189 nM
